# Data published in patent publication US5260327A, “Methods for inhibiting the proliferation of brain and hepatic metastases by using lonidamine” (priority 1992, dated 1993).
# “Also recorded” adds a separate entry of the source.
# Assays:
# Meth-A fibrosarcoma [1] = experiment: In vivo therapy with lonidamine, radiation and hyperthermia, tumor control; set-up: species or system BALB/cBy mice
# Description: Localized radiation and hyperthermia was performed on BALB/cBy mice when tumors were 0.7+/-0.1 cucm and tumor analysis endpoints have been previously described. (26) Tumor control was defined as non-palpable tumor at 60 days. Waterbath temperatures were 41.7° C./65 minutes and […]/65 minutes×2 fractions. […] (Bailey, 26 g thermocouple) below circulated water bath temperatures. Separation between the two hyperthermia treatments was 72 hours.
# Lonidamine administration at hour pre-radiation and immediately hyperthermia and was based on serum pharmacokinetic and radiation studies (25). Animals were primed at 100 mg/kg. s.c., 3 days pre-radiation or hyperthermia. At the initiation of radiation or hyperthermia, animals were inoculated 50 mg/kg i.p. 1 hour before treatment and 50 mg/kg s.c. at 48 hours post treatment. Animals were maintained (100 mg/kg) during fractionation and post treatment until recurrence to initial volumes.
# [2] = cited from earlier work
# [3] = system: cell culture and murine tumor systems; details: cited from earlier work
# brain metastases = details: cited from earlier work
# spermatogenesis = details: in vivo; cited from earlier work
# [4] = system: multicellular HeLa spheroids; experiment: Radio-enhancement in multicellular tumor spheroids (growth delay); format: cell-based, human
# Description: Based on these studies, and on supportive studies in mice receiving the drug chronically,Kim et al. proposed that optimal use of lonidamine would be to employ it both during and, in a prolonged exposure, after the course of radiation therapy.
# The drug's radio-enhancing effects in multicellular tumor spheroids (MTS) was examined assessing growth delay following radiation with and without the drug.
# [5] = system: Stage 2-4 head and neck cancer; details: cited from earlier work
# [6] = system: repair of radiation-induced potentially lethal damage (PLD); details: cited from earlier work
# [7] = system: oxidative and glycolytic metabolism of mammalian cells; details: cited from earlier work
# HeLa cells = experiment: Trimodality therapy in HeLa monolayer cell cultures; format: cell-based, human
# Description: Lonidamine was present only during heating.
# (§1) The effect of trimodality therapy has been examined in HeLa monolayer cell cultures and in the transplanted Meth-A fibrosarcoma. The studies in HeLa cell cultures used a single radiation fraction, and prompt subculture for clonal analysis, conditions which would reduce any heat or drug-induced effect on potential lethal damage. […] In vivo comparative assessment of trimodality therapy versus single and bimodality combination was made in the oxic Meth-A fibrosarcoma. The trimodality regimen consisted of lonidamine (50 mg/kg/day chronically throughout the period of observation), plus radiation therapy (6 Gy×5), and hyperthermia (41.2° C.×65 min pre radiation therapy on days 1 and 4 of therapy); the results are presented in FIG. 14.
# hepatic metastases = experiment: Phase I study of lonidamine + radiation therapy in patients with hepatic metastases; format: in vivo, human (patients)
# Description: Lonidamine has received extensive clinical assessment both as a single agent and in combination with radiation therapy. […] In this dosage peak plasma levels of 5 to 15 μg/ml are attained; this is within the range that enhances the effect of radiation and hyperthermia in model systems (24-26, 30, 37 and 38). Two combined lonidamine+radiation therapy studies have been conducted in patients with extensive hepatic or brain metastases, respectively. […] The study in patients with brain metastases employed a randomized comparative design. Fifty eight patients were enrolled; 31 received lonidamine plus whole brain radiation therapy (WBRT) 300 cGy×10; 27 received WBRT alone.
# Meth-A fibrosarcoma [8] = experiment: In vivo trimodality therapy versus single and bimodality therapy, tumor growth delay; set-up: species or system mice; details: lonidamine 50 mg/kg/day
# Description: as §1
# Meth-A fibrosarcoma [9] = experiment: Radiation enhancement by nicotinamide in Meth-A fibrosarcoma; format: in vivo, murine; details: radiosensitive tumor
# Description: The mechanism by which nicotinamide produces radiation enhancement is not established.
# [10] = system: EMT-6, Lewis Lung, and RIF-1 tumors; details: injection prior to radiation treatment; cited from earlier work
# [11] = in vivo; cited from earlier work
# [12] = system: poly-ADP ribose synthetase; details: cited from earlier work
# [13] = system: C3H mammary adenocarcinoma; details: transplanted C3H mammary adenocarcinoma; cited from earlier work
# [14] = Tolerability of nicotinamide in mice; details: optimal dose of 0.5 gm/kg (1.5 gm/m^2)
# cell culture models = experiment: Radiation enhancement by nicotinamide in cell culture; format: cell-based
# Description: (22) See FIGS. 9 and 10. As noted previously, the following DMF's were obtained for the respective experimental conditions: Nicotinamide+Radiation Therapy=1.36, Hyperthermia+Radiation Therapy=1.36, Nicotinamide+Hyperthermia+Radiation Therapy=1.64.
# MCA mammary carcinoma = experiment: Radiation enhancement in the transplanted MCA mammary carcinoma, with or without mild hyperthermia; format: in vivo, murine
# Description: Nicotinamide was administered intraperitoneal one (1) […] before irradiation. Localized mild hyperthermia (41° C.) was applied for one (1) hour immediately prior to irradiation.
# [15] = single large daily dosage just prior to radiation
smiles,measurement,setting,value
O=C(O)c1nn(Cc2ccc(Cl)cc2Cl)c2ccccc12 [lonidamine],"tumor response, lonidamine+hyperthermia vs hyperthermia alone and radiation+lonidamine vs radiation alone","Meth-A fibrosarcoma [1]; 41.2° C. or 41.7° C., fractionated",No differences were observed
same,"tumor response, lonidamine in adjuvant capacity",Meth-A fibrosarcoma [1]; adjuvant,Marginal differences in tumor response
same,tri-modality therapy vs single or bi-modality treatments,"Meth-A fibrosarcoma [1]; mouse, in vivo",consistently greater effect when compared to single or bi-modality treatments
same,"tumor control, tri-modality therapy (radiation+hyperthermia+lonidamine)","Meth-A fibrosarcoma [1]; non-palpable tumor at 60 days, 41.2° C. or 41.7° C.",50-56%
same,tri-modality therapy vs radiation+hyperthermia at 41.2° C.,Meth-A fibrosarcoma [1]; tumor control,more effective than the tumor control for radiation+hyperthermia at 41.2 °C
same,peak plasma levels,[2]; 150 mg t.i.d.,5 to 15 µg/mL
same,tolerability,[2]; 150 mg t.i.d.,well tolerated by most patients
same,dose-limiting side effect,[2]; clinical,skeletal muscle discomfort
same,pH dependence of hyperthermia enhancing effects,[3]; acidification of cell culture medium,greatly increased by acidification of the cell culture medium; also recorded: increased in cells under conditions of reduced extracellular pH
same,radiation and hyperthermia enhancement,[3],radiation and hyperthermia enhancing agent in cell culture and murine tumor systems; also recorded: enhanced cytotoxic effects in cells treated either with radiation or hyperthermia
same,"response or survival, lonidamine + WBRT vs WBRT alone",brain metastases; WBRT 300 cGy×10,no significant difference in response or survival
same,"patients with peak plasma levels ≥15 μg/ml, WBRT study",brain metastases; [15],15 of 30
same,inhibition of spermatogenesis,spermatogenesis,potent inhibitor of spermatogenesis in mammals
same,spheroid regrowth on lonidamine removal,[4]; lonidamine removed 5 days following the last radiation exposure,begins to grow again when lonidamine is removed
same,effect of fractionation of radiation dose on lonidamine effect,"[4]; multicellular HeLa spheroids, with radiation",increased by fractionation of the radiation dose; also recorded: increased with increasing dose fractionation
same,disease free survival at 2 years (all patients),[5]; Radiation Therapy+Lonidamine 150 mg t.i.d. (placebo arm: 25%),51%
same,complete response rate,[5]; Radiation Therapy+Lonidamine 150 mg t.i.d. (placebo arm: 58%),69%
same,remission duration,[5]; Radiation Therapy+Lonidamine 150 mg t.i.d. vs placebo arm,longer in the lonidamine treated arm
same,disease free survival rate versus radiation therapy,"[5]; lonidamine + radiation therapy, placebo-controlled randomized study",significantly increased the disease free survival rate
same,inhibition of repair of radiation-induced potentially lethal damage,[6],inhibitor of repair of radiation-induced potentially lethal damage; also recorded: established inhibitor of repair of potential lethal damage
same,effects on oxidative and glycolytic metabolism,[7],inhibitory effects on both oxidative and glycolytic metabolism of mammalian cells; also recorded: perturb energy metabolism in neoplastic cells
same,cytotoxic effect on HeLa cells,HeLa cells; 37° C.,no cytotoxic effect on HeLa cells at 37 °C
same,trimodality therapy vs radiation alone or bimodality therapy,"HeLa cells; radiation therapy+lonidamine+mild hyperthermia (41.5° C.), single radiation fraction","clearly superior to radiation alone, or bimodality therapy"
same,objective tumor regression,hepatic metastases; lonidamine + radiation therapy 250 to 500 cGy ×5,five of fifteen
same,"patients with peak plasma levels ≥15 μg/ml, hepatic study",hepatic metastases; [15],11 of 17
same,patient tolerance of the combination,hepatic metastases; single large daily lonidamine dosage + radiation therapy,acceptable patient tolerance
same,"day of tumor regrowth, trimodality therapy","Meth-A fibrosarcoma [8]; 6 Gy×5, 41.2° C.×65 min, regrowth not yet evident (radiation+hyperthermia: day 18)",> 32 days
same,"tumor growth inhibition, radiation therapy+lonidamine, until day",Meth-A fibrosarcoma [8]; radiation 6 Gy×5 (radiation alone: day 11),13 days
same,"tumor regression, trimodality therapy","Meth-A fibrosarcoma [8]; radiation 6 Gy×5, hyperthermia 41.2° C.×65 min days 1 and 4",tumor regression to the point of non-palpability
NC(=O)c1cccnc1 [nicotinamide],radiation enhancement in oxic Meth-A fibrosarcoma,Meth-A fibrosarcoma [9],inactive against the oxic Meth-A fibrosarcoma model; also recorded: no radio-enhancing effect
same,optimal timing of drug for radiation enhancement,[10],1 to 3 h
same,safety in humans,[11],safe and associated with only a low incidence of side effects
same,inhibition of poly-ADP ribose synthetase,[12],inhibitor of poly-ADP ribose synthetase
same,radiation enhancing effects,[13],radiation enhancing effects
same,toxicity in mice,[14],non-toxic in mice
same,activity in cell culture models,cell culture models; in our hands,not active in cell culture models
same,radiation enhancement in cell culture,cell culture models; nicotinamide concentrations <10 mM,No radiation enhancement
same,"radiation dose modification factor, nicotinamide + hyperthermia + radiation","MCA mammary carcinoma; 0.5 gm/kg 1 hour prior to radiation, 41° C. for one hour, b79 statement",1.77
same,"DMF, Nicotinamide+Hyperthermia+Radiation Therapy","MCA mammary carcinoma; 125 to 500 mg/kg i.p. one hour prior to irradiation, 1 hour heating at 41° C., b86 statement",1.64
same,"DMF, Nicotinamide+Radiation Therapy","MCA mammary carcinoma; 125 to 500 mg/kg i.p. one hour prior to irradiation, b86 statement",1.36
same,enhancement of effects of radiation and radiation plus hyperthermia,"MCA mammary carcinoma; 125 to 500 mg/kg i.p., one hour prior to irradiation, 41° C. 1 hour",clear enhancement of the effects of radiation and radiation plus hyperthermia
same,"DMF, nicotinamide plus radiation (without hyperthermia)","MCA mammary carcinoma; without hyperthermia, b79 statement",1.35
